Data published in PubChem BioAssay AID1963969 (Molecular Pharmacology Branch, DTP, NCI, 2024).
Each block holds one compound with its values, some of them ahead of it.

System: 817829-284-R-J1-PDC multi-cell spheroid viability
Test: Anticancer human tumor 817829-284-R-J1-PDC patient-derived colon adenocarcinoma cell line growth inhibition [PI3K]
Conditions: for IC50: curve of first compound; for viability, T/C: stronger effect = lower value
How it was run: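 Tumor cells were combined with HUVEC and MSCs into spheroids, then dosed with PI3K-inhibitor combinations over half-log ranges capped near clinical Cmax or 10 microM.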

[1] = second compound 0.00316 µM, first compound 0.0316 µM
[2] = second compound 0.00316 µM, first compound 0.1 µM
[3] = second compound 0.00316 µM, first compound 0.316 µM
[4] = second compound 0.00316 µM, first compound 1 µM
[5] = second compound 0.00316 µM, first compound 3.16 µM
[6] = second compound 0.00316 µM, first compound 10 µM
[7] = second compound 0.01 µM, first compound 0.0316 µM
[8] = second compound 0.01 µM, first compound 0.1 µM
[9] = second compound 0.01 µM, first compound 0.316 µM
[10] = second compound 0.01 µM, first compound 1 µM
[11] = second compound 0.01 µM, first compound 3.16 µM
[12] = second compound 0.01 µM, first compound 10 µM
[13] = second compound 0.0316 µM, first compound 0.0316 µM
[14] = second compound 0.0316 µM, first compound 0.1 µM
[15] = second compound 0.0316 µM, first compound 0.316 µM
[16] = second compound 0.0316 µM, first compound 1 µM
[17] = second compound 0.0316 µM, first compound 3.16 µM
[18] = second compound 0.0316 µM, first compound 10 µM
[19] = second compound 0.1 µM, first compound 0.0316 µM
[20] = second compound 0.1 µM, first compound 0.1 µM
[21] = second compound 0.1 µM, first compound 0.316 µM
[22] = second compound 0.1 µM, first compound 1 µM
[23] = second compound 0.1 µM, first compound 3.16 µM
[24] = second compound 0.1 µM, first compound 10 µM
[25] = second compound 0.316 µM, first compound 0.0316 µM
[26] = second compound 0.316 µM, first compound 0.1 µM
[27] = second compound 0.316 µM, first compound 0.316 µM
[28] = second compound 0.316 µM, first compound 1 µM
[29] = second compound 0.316 µM, first compound 3.16 µM
[30] = second compound 0.316 µM, first compound 10 µM
[31] = second compound 1 µM, first compound 0.0316 µM
[32] = second compound 1 µM, first compound 0.1 µM
[33] = second compound 1 µM, first compound 0.316 µM
[34] = second compound 1 µM, first compound 1 µM
[35] = second compound 1 µM, first compound 3.16 µM
[36] = second compound 1 µM, first compound 10 µM
[37] = second compound 3.16 µM, first compound 0.0316 µM
[38] = second compound 3.16 µM, first compound 0.1 µM
[39] = second compound 10 µM, first compound 0.0316 µM
[40] = second compound 10 µM, first compound 0.1 µM
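Further: spheroids exposed to agents for seven days before readout.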
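Wherever viability, T/C is given: percent of vehicle DMSO control viability which is 100%.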

IC50 (second compound 0.00316 µM): 8670 nM
IC50 (second compound 0.01 µM): 5160 nM
IC50 (second compound 0.0316 µM): > 10000 nM
IC50 (second compound 0.1 µM): > 10000 nM
IC50 (second compound 0.316 µM): 4350 nM
IC50 (second compound 1 µM): < 31.6 nM
Compound: C#Cc1c(F)ccc2cc(O)cc(-c3ncc4c(N5CC6CCC(C5)N6)nc(OCC56CCCN5CC(F)C6)nc4c3F)c12 (stereo not drawn) + CC(Nc1ccc2c(c1)OCCn1cc(N3C(=O)OCC3C(F)F)nc1-2)C(N)=O
viability, T/C [1]: 83.7%
viability, T/C [2]: 75.3%
viability, T/C [3]: 87.4%
viability, T/C [4]: 77.4%
viability, T/C [5]: 69.9%
viability, T/C [6]: 47.2%
viability, T/C [7]: 90%
viability, T/C [8]: 84.8%
viability, T/C [9]: 72.7%
viability, T/C [10]: 79.9%
viability, T/C [11]: 56.1%
viability, T/C [12]: 38.3%
viability, T/C [13]: 74.9%
viability, T/C [14]: 69.8%
viability, T/C [15]: 58.5%
viability, T/C [16]: 65.9%
viability, T/C [17]: 63.5%
viability, T/C [18]: 47.8%
viability, T/C [19]: 64.9%
viability, T/C [20]: 79.8%
viability, T/C [21]: 56.1%
viability, T/C [22]: 80.5%
viability, T/C [23]: 77.8%
viability, T/C [24]: 39%
viability, T/C [25]: 53.5%
viability, T/C [26]: 83.5%
viability, T/C [27]: 48.6%
viability, T/C [28]: 71.2%
viability, T/C [29]: 54.7%
viability, T/C [30]: 32.2%
viability, T/C [31]: 45.1%
viability, T/C [32]: 45.3%
viability, T/C [33]: 47.8%
viability, T/C [34]: 60.3%
viability, T/C [35]: 59.9%
viability, T/C [36]: 30.2%

IC50 (second compound 0.00316 µM): < 31.6 nM
IC50 (second compound 0.01 µM): < 31.6 nM
IC50 (second compound 0.0316 µM): < 31.6 nM
IC50 (second compound 0.1 µM): < 31.6 nM
IC50 (second compound 0.316 µM): < 31.6 nM
IC50 (second compound 1 µM): < 31.6 nM
Compound: CC1(C)CCC(Nc2ncc(C(F)(F)F)c(-c3c[nH]c4c(P(C)(C)=O)c(C#N)ccc34)n2)CN1 (stereo not drawn) + CC(Nc1ccc2c(c1)OCCn1cc(N3C(=O)OCC3C(F)F)nc1-2)C(N)=O
viability, T/C [1]: 27.5%
viability, T/C [2]: 24.9%
viability, T/C [3]: 36.7%
viability, T/C [4]: 28.7%
viability, T/C [5]: 30%
viability, T/C [6]: 0.96%
viability, T/C [7]: 26.9%
viability, T/C [8]: 25.7%
viability, T/C [9]: 25.2%
viability, T/C [10]: 33.6%
viability, T/C [11]: 26.4%
viability, T/C [12]: 1.03%
viability, T/C [13]: 24.1%
viability, T/C [14]: 28.1%
viability, T/C [15]: 25.9%
viability, T/C [16]: 32%
viability, T/C [17]: 24.6%
viability, T/C [18]: 0.85%
viability, T/C [19]: 25.2%
viability, T/C [20]: 28.4%
viability, T/C [21]: 32.1%
viability, T/C [22]: 27.7%
viability, T/C [23]: 29.2%
viability, T/C [24]: 1.66%
viability, T/C [25]: 23.4%
viability, T/C [26]: 28.7%
viability, T/C [27]: 26%
viability, T/C [28]: 22.8%
viability, T/C [29]: 27.9%
viability, T/C [30]: 1.09%
viability, T/C [31]: 21.7%
viability, T/C [32]: 24.1%
viability, T/C [33]: 25.8%
viability, T/C [34]: 26.2%
viability, T/C [35]: 26.6%
viability, T/C [36]: 1.56%

IC50 (second compound 0.0316 µM): 70.9 nM
IC50 (second compound 0.1 µM): 74 nM
IC50 (second compound 0.316 µM): > 100 nM
IC50 (second compound 1 µM): 71.2 nM
IC50 (second compound 3.16 µM): 14.3 nM
IC50 (second compound 10 µM): 33.4 nM
Compound: CC(=O)c1c(C)c2cnc(Nc3ccc(N4CCNCC4)cn3)nc2n(C2CCCC2)c1=O + CC(Nc1ncnc2nc[nH]c12)c1cc2cccc(Cl)c2c(=O)n1-c1ccccc1
viability, T/C (second compound 0.0316 µM, first compound 0.000316 µM): 96%
viability, T/C (second compound 0.0316 µM, first compound 0.001 µM): 68.1%
viability, T/C (second compound 0.0316 µM, first compound 0.00316 µM): 74.3%
viability, T/C (second compound 0.0316 µM, first compound 0.01 µM): 75.4%
viability, T/C [13]: 77%
viability, T/C [14]: 38.6%
viability, T/C (second compound 0.1 µM, first compound 0.000316 µM): 92.5%
viability, T/C (second compound 0.1 µM, first compound 0.001 µM): 79.8%
viability, T/C (second compound 0.1 µM, first compound 0.00316 µM): 74.5%
viability, T/C (second compound 0.1 µM, first compound 0.01 µM): 90.2%
viability, T/C [19]: 79%
viability, T/C [20]: 39.4%
viability, T/C (second compound 0.316 µM, first compound 0.000316 µM): 90.8%
viability, T/C (second compound 0.316 µM, first compound 0.001 µM): 85%
viability, T/C (second compound 0.316 µM, first compound 0.00316 µM): 101%
viability, T/C (second compound 0.316 µM, first compound 0.01 µM): 60.2%
viability, T/C [25]: 56.5%
viability, T/C [26]: 51.3%
viability, T/C (second compound 1 µM, first compound 0.000316 µM): 101%
viability, T/C (second compound 1 µM, first compound 0.001 µM): 73.1%
viability, T/C (second compound 1 µM, first compound 0.00316 µM): 78.7%
viability, T/C (second compound 1 µM, first compound 0.01 µM): 83.5%
viability, T/C [31]: 59.8%
viability, T/C [32]: 43.5%
viability, T/C (second compound 3.16 µM, first compound 0.000316 µM): 65%
viability, T/C (second compound 3.16 µM, first compound 0.001 µM): 134%
viability, T/C (second compound 3.16 µM, first compound 0.00316 µM): 78.8%
viability, T/C (second compound 3.16 µM, first compound 0.01 µM): 57.5%
viability, T/C [37]: 37.8%
viability, T/C [38]: 42.7%
viability, T/C (second compound 10 µM, first compound 0.000316 µM): 60.1%
viability, T/C (second compound 10 µM, first compound 0.001 µM): 54.4%
viability, T/C (second compound 10 µM, first compound 0.00316 µM): 51%
viability, T/C (second compound 10 µM, first compound 0.01 µM): 66.3%
viability, T/C [39]: 46.6%
viability, T/C [40]: 34.4%

IC50 (second compound 0.0316 µM): 4760 nM
IC50 (second compound 0.1 µM): 4210 nM
IC50 (second compound 0.316 µM): 3330 nM
IC50 (second compound 1 µM): 4310 nM
IC50 (second compound 3.16 µM): 1350 nM
IC50 (second compound 10 µM): 1790 nM
Compound: CCCS(=O)(=O)Nc1ccc(F)c(C(=O)c2c[nH]c3ncc(-c4ccc(Cl)cc4)cc23)c1F + CC(Nc1ncnc2nc[nH]c12)c1cc2cccc(Cl)c2c(=O)n1-c1ccccc1
viability, T/C [13]: 110%
viability, T/C [14]: 61.7%
viability, T/C [15]: 62.3%
viability, T/C [16]: 52%
viability, T/C [17]: 90.5%
viability, T/C [18]: 4.04%
viability, T/C [19]: 78%
viability, T/C [20]: 72.6%
viability, T/C [21]: 72.7%
viability, T/C [22]: 89%
viability, T/C [23]: 63.9%
viability, T/C [24]: 7.99%
viability, T/C [25]: 98.2%
viability, T/C [26]: 70%
viability, T/C [27]: 101%
viability, T/C [28]: 60.6%
viability, T/C [29]: 57.8%
viability, T/C [30]: 4.81%
viability, T/C [31]: 66.9%
viability, T/C [32]: 70.5%
viability, T/C [33]: 87%
viability, T/C [34]: 38.3%
viability, T/C [35]: 68.3%
viability, T/C [36]: 6.14%
viability, T/C [37]: 114%
viability, T/C [38]: 89%
viability, T/C (second compound 3.16 µM, first compound 0.316 µM): 68.6%
viability, T/C (second compound 3.16 µM, first compound 1 µM): 59%
viability, T/C (second compound 3.16 µM, first compound 3.16 µM): 47.2%
viability, T/C (second compound 3.16 µM, first compound 10 µM): 8.3%
viability, T/C [39]: 72.4%
viability, T/C [40]: 75.2%
viability, T/C (second compound 10 µM, first compound 0.316 µM): 68.9%
viability, T/C (second compound 10 µM, first compound 1 µM): 49.8%
viability, T/C (second compound 10 µM, first compound 3.16 µM): 47.7%
viability, T/C (second compound 10 µM, first compound 10 µM): 9.39%
